# Results: patent publication US20220296718A1, “EXCIPIENT FOR BIOTHERAPEUTICS” (Ludwig-Maximilians-Universität München, priority 2019, published 2022)
# Key:
# Assay type in all cases: physicochemical
# [1] = tested on: IgG antibody trastuzumab; test: Particle formation after freezing/thawing stress of trastuzumab (flow imaging microscopy); conditions: 50 mM phosphate buffer, pH 7.0; 5 mg/ml trastuzumab; 50 mM excipient; FIG. 1
# Description: (§1) Production of Test Solutions: The buffer solution consisted of 50 mM sodium phosphate at pH 7.0. Protein stock solutions were liberated from other excipients by IEX chromatography to remove potential impurities and surfactants and by dialysis over 24 h in buffer solution 100-200 times of their volumes. The buffer solution was renewed after 3 hours and after 14 hours. Stock solutions of test excipients were produced by dissolving 500 mM of the excipient in 90% of the required amount of buffer solution. After that, the pH was adjusted and the remaining volume of buffer solution was added. Then, the solution was filtered with a 0.22 μm filter. The corresponding amount of protein stock solution was added. Sufficient homogenization was provided.
# (§2) Freeze/Thaw-Cycle: The protein-containing solutions were filled into cleaned 2R vials and crimped. The samples were frozen from 20° C. to −50° C. in 3 cycles at a rate of 2K/min in a Christ 2D-6 freeze dryer and then thawed at room temperature until the entire sample had reached the liquid state, before the cycle was started again.
# (§3) Flow Imaging Microscopy: 165 μl of the sample solution were measured at 10× magnification using a flow imaging microscope (FlowCam, Fluid Imaging Technologies, Inc., Scarborough, Me., USA).
# (§4) The resulting solutions were subjected to freezing/thawing stress and stirring stress.
# [2] = biological target: recombinant anakinra (Homo sapiens, UniProt P18510); test: Particles and turbidity after freezing/thawing and stirring stress of anakinra; conditions: 50 mg/ml anakinra, 20 mM citrate pH 6.5, 50 mM excipient, freezing/thawing and 3 h stirring stress
# Description: (§5) The production of test solutions, the freeze/thaw-cycle, the measurement of stirring stress and the visual inspection were performed substantially as described in Example 4.
# The buffer solution consisted of 20 mM citrate buffer pH 6.5. The samples were stirred for 3 h.
# N,N,N′,N′-tetrakis-(2-hydroxyethyl) adipinic acid amide (Ark Pharm Inc.), D(+) or trehalose (Sigma-Aldrich), or polysorbate 80, was added as a test excipient to an aqueous solution containing recombinant anakinra. […] In the case of polysorbate 80 its concentration was 0.05%. The resulting solutions were subjected to freezing/thawing stress and stirring stress.
# [3] = tested on: IgG antibody trastuzumab; test: Particle formation after stirring stress of trastuzumab (flow imaging microscopy); conditions: 50 mM phosphate buffer, pH 7.0; 5 mg/ml trastuzumab; 50 mM excipient; 2 h at 200 rpm; FIG. 2
# Description: as §1
# Stirring Stress: The protein-containing solutions were filled into cleaned 2R vials and crimped. Afterwards, the samples were stirred for 2 h at 200 rpm with a magnetic stirrer (Variomag Poly 15, Thermofisher, 3 mm polytetrafluoroethylene—coated stirring bars).
# as §3, §4
# [4] = Solubility in water, classification of the European Pharmacopoeia
# Description: In certain embodiments, the diamide has a solubility in water of at least about 0.02% (w/v), of at least about 0.05% (w/v), of at least about 0.1% (w/v), of at least about 0.5% (w/v) or of at least about 1% (w/v) at 20° C., e.g. as determined by the column elution method according to the OECD Guidelines, Test No. 105. Preferably, the diamide is considered as soluble, well soluble or freely soluble according to the classifications of the European Pharmacopoeia, which is herein incorporated by reference.
# [5] = biological target: T1, recombinant G-CSF (Homo sapiens, UniProt P09919); test: Particles and turbidity after freezing/thawing and stirring stress of G-CSF; conditions: 1 mg/ml G-CSF, 10 mM acetate pH 4.5, 50 mM excipient; compared with trehalose, sucrose, or trehalose or sucrose with methionine
# T1 sequence (P09919 31-207): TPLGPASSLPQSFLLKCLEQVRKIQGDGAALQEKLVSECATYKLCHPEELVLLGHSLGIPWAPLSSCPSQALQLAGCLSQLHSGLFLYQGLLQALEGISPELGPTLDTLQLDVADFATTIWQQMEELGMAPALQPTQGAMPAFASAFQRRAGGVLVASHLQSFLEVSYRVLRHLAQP
# Description: as §5
# The buffer solution consisted of 10 mM acetate buffer pH 4.5 and was renewed after 4 hours and after 16 hours. For the freeze/thaw cycle and the measurements of stirring stress, 2R vials were used.
# N,N,N′,N′-tetrakis-(2-hydroxyethyl) adipinic acid amide (Ark Pharm Inc.), D(+) trehalose (Sigma-Aldrich), sucrose, and mixtures of trehalose or sucrose with methionine (Sigma-Aldrich) respectively, was added as a test excipient to an aqueous solution containing recombinant G-CSF. […] In the case of sucrose or trehalose mixtures with methionine, the concentration of the sugar was 50 mM, and the concentration of methionine was 20 mM. The resulting solutions were subjected to freezing/thawing stress and stirring stress.
# [6] = tested on: recombinant IgG antibody, either rituximab or omalizumab; test: Particles and turbidity (visual inspection) after freezing/thawing and stirring stress of rituximab or omalizumab; conditions: 10 mg/ml rituximab or omalizumab, 20 mM histidine pH 6.0, 75 mM excipient; compared with trehalose, sucrose, or trehalose or sucrose with methionine
# Description: as §1, with “of 20” for “of 50”, “mM histidine buffer” for “mM sodium phosphate at”, “pH 6.0.” for “pH 7.0.”, “excipients” for “excipients by IEX chromatography to remove potential impurities and surfactants and”, “after 6” for “after 3”, “after 20” for “after 14”
# Freeze/Thaw-Cycle: The protein-containing solutions were filled into cleaned 6R vials and crimped. The samples were frozen from 20° C. to −70° C. in 5 cycles in a freezer and then thawed at room temperature until the entire sample had reached the liquid state, before the cycle was started again.
# Stirring Stress: The protein-containing solutions were filled into cleaned 6R vials and crimped. Afterwards, the samples were stirred for 2 h at 200 rpm with a magnetic stirrer (Variomag Poly 15, Thermofisher, 5 mm polytetrafluoroethylene—coated stirring bars).
# Visual inspection: 3 Vials of each formulation were visually inspected according to the method described in the European Pharmacopoeia. […]
# [7] = biological target: interferon-alpha-2a (Homo sapiens, UniProt P01563, R46K); test: Particle formation after freezing/thawing stress of interferon-alpha-2a; conditions: 50 mM phosphate buffer, pH 7.0; 1 mg/ml interferon-alpha-2a; 50 mM excipient; FIG. 3
# Description: as §1, §2, §3
# The resulting solutions were subjected to freeze/thawing stress.
# Sequence of recombinant anakinra (P18510 with tags, fused parts or gaps): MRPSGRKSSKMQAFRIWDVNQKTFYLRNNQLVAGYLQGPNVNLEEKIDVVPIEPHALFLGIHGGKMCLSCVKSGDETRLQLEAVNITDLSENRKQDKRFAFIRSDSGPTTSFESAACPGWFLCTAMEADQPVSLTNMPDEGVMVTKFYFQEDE
# Sequence of interferon-alpha-2a (P01563 24-188 R46K): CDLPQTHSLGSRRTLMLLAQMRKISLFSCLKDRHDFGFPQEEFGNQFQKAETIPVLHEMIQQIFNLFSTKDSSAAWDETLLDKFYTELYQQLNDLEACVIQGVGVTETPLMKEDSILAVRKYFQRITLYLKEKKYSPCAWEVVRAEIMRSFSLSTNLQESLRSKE
"Particles in stressed formulations, compared with trehalose [2]","Turbidity of stressed formulations, compared with trehalose [2]","Particles in stressed formulations, compared with polysorbate 80 ([2]; polysorbate 80 at 0.05%)","Turbidity of stressed formulations, compared with polysorbate 80 ([2]; polysorbate 80 at 0.05%)",Solubility according to the classification of the European Pharmacopoeia [4],Particles in stressed formulations [5],Turbidity of stressed formulations [5],Particles in stressed formulations [6],Turbidity of stressed formulations [6],Compound,Amount of particles after 3 freezing/thawing cycles [1],Amount of particles after stirring stress [3],Amount of particles after 3 freezing/thawing cycles [7]
–,–,–,–,–,–,–,–,–,Polysorbate 20 [reference compound],even less particles,–,–
less particles,less turbid,about equally low amounts of particles,about equally low in turbidity,well soluble,less particles,less turbid,less particles,less turbid,"O=C(CCCCC(=O)N(CCO)CCO)N(CCO)CCO [compound A, N,N,N′,N′-tetrakis-(2-hydroxyethyl) adipinic acid amide]","less particles than formulations comprising standard excipients like, glycerol, NaCl, or D(+) trehalose or formulations without any excipients","less particles than formulations comprising standard excipients like, glycerol, NaCl, or D(+) trehalose or formulations without any excipients",less particles than formulations without any excipient and formulations with arginine or polysorbate 20
